Laboratory results taken from ChEMBL document CHEMBL1145686, “Three new oleanane saponins from Zanha africana” (1997).

Tested on: Mus musculus
Test: Antiinflammatory activity against TPA-induced ear edema in mouse assessed per ear
Type: functional

First: C[C@@H]1O[C@@H](O[C@H]2[C@H](OC(=O)[C@]34CCC(C)(C)C[C@H]3C3=CC[C@@H]5[C@@]6(C)C[C@H](O)[C@H](O[C@@H]7O[C@H](C(=O)O)[C@@H](O)[C@H](O)[C@H]7O)[C@@](C)(C(=O)O)[C@@H]6CC[C@@]5(C)[C@]3(C)C[C@H]4O)O[C@@H](C)[C@H](O)[C@H]2O)[C@H](O)[C@H](O)[C@H]1O [ZANHASAPONIN A]
Second: C[C@@H]1O[C@@H](O[C@H]2[C@H](OC(=O)[C@]34CCC(C)(C)C[C@H]3C3=CC[C@@H]5[C@@]6(C)C[C@H](O)[C@H](O[C@@H]7O[C@H](C(=O)O)[C@@H](O)[C@H](O)[C@H]7O)[C@@](C)(C(=O)O)[C@@H]6CC[C@@]5(C)[C@]3(C)C[C@H]4O)O[C@@H](C)[C@H](O)[C@H]2O)[C@H](O[C@@H]2OC[C@@H](O)[C@H](O)[C@H]2O)[C@H](O)[C@H]1O [ZANHASAPONIN B]
The ID50 of the first is lower: 14 µg for the first, 20 µg for the second.

With C[C@@H]1O[C@@H](O[C@H]2[C@H](OC(=O)[C@]34CCC(C)(C)C[C@H]3C3=CC[C@@H]5[C@@]6(C)C[C@H](O)[C@H](O[C@@H]7O[C@H](C(=O)O)[C@@H](O)[C@H](O)[C@H]7O)[C@@](C)(C(=O)O)[C@@H]6CC[C@@]5(C)[C@]3(C)C[C@H]4O)O[C@@H](C)[C@H](O)[C@H]2O)[C@H](O[C@@H]2OC[C@@H](O)[C@H](O[C@@H]3OC[C@@H](O)[C@H](O)[C@H]3O)[C@H]2O)[C@H](O)[C@H]1O [ZANHASAPONIN C] the ID50 was 79 µg.
